Counter-ions that a name gives are not always drawn.
Test system: Pseudomonas aeruginosa PAM1001
Assay: microbe, parasite or virus in culture
Format: cell-based
Details: for inhibition at 2.5 µg/mL / inhibition at 5 µg/mL / inhibition at 10 µg/mL / inhibition at 20 µg/mL / inhibition at 40 µg/mL: Pseudomonas aeruginosa, PAM1001, read-out: Inhibition (%) of growth of P. aeruginosa PAM1001; for Inhibition (%) of growth of P. aeruginosa PAM1001: Levofloxacin 0.25 μg/mL
In short: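 Growth inhibition is expressed as a percentage relative to a control culture containing 0.25 microg/mL levofloxacin but no EPI. Cultures (MHB, initial 1×10^6 CFU/mL) with levofloxacin and a range of EPI levels were monitored kinetically at 650 nm during 18 h incubation at 37° C.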

[1] = Concentration of Compound 2.5 μg/mL
[2] = Concentration of Compound 5 μg/mL
[3] = Concentration of Compound 10 μg/mL
[4] = Concentration of Compound 20 μg/mL
[5] = Concentration of Compound 40 μg/mL

SMILES	inhibition at 2.5 µg/mL [%]	inhibition at 5 µg/mL [%]	inhibition at 10 µg/mL [%]	inhibition at 20 µg/mL [%]	inhibition at 40 µg/mL [%]	Inhibition (%) of growth of P. aeruginosa PAM1001 [1] [%]	Inhibition (%) of growth of P. aeruginosa PAM1001 [2] [%]	Inhibition (%) of growth of P. aeruginosa PAM1001 [3] [%]	Inhibition (%) of growth of P. aeruginosa PAM1001 [4] [%]	Inhibition (%) of growth of P. aeruginosa PAM1001 [5] [%]
NCC(O)[C@@H]1C[C@@H](Oc2cccc(-c3ccccc3)c2)CN1 (stereo partly drawn) [Compound D602, (2S,4R)-2-(2-Amino-1-hydroxyethyl)-4-(3-biphenyloxy)pyrrolidine Dihydrochloride]	98	99	100	100	100					
NC[C@H]1CN[C@H](C(=O)Nc2ccc(Oc3ccccc3)cc2)C1 [Compound D331, trans-4-Aminomethyl-L-Proline 4-Phenoxyphenyl-amide Dihydrochloride]	17	9	-10	100	100					
NCCC[C@@H](N)C(=O)N1C[C@@H](NC(=O)CCCc2ccccc2)C[C@H]1C(=O)Nc1ccc2c(c1)CCC2 [Compound D124, D-Ornithylcis-4-(4-Phenylbutanoyl)amino-L-Proline 5-Indanylamide Dihydrochloride]	19	100	100	100	100					
NCCS(=O)(=O)N[C@H]1CN[C@H](C(=O)Nc2ccc(Oc3ccccc3)cc2)C1 [Compound D322, trans-4-(2-Aminoethylsulfonylamino)-L-Proline 4-Phenoxyphenylamide Dihydrochloride]	19	19	17	99	100					
NCC(=O)N[C@@H]1CN[C@@H](COc2cccc(-c3ccccc3)c2)C1 [Compound D504, (2R,4S)-4-Glycylamino-2-(3-Biphenyloxy)methyl-pyrrolidine Dihydrochloride]	22	3	74	100	99					
Cl.Cl.NCC(=O)N[C@H]1CN[C@H](C=Cc2ccc(-c3ccccc3)cc2)C1 [Compound D801, (2S,4R)-4-Glycylamino-2-((E and Z)-4-Phenyistyryl)-pyrrolidine Dihydrochloride]						8	63	99	99	99
NCC(=O)N[C@H]1CN[C@H](C(=O)NCC(=O)Nc2ccc(Cc3ccccc3)cc2)C1 [Compound D210, trans-4-Glycylamino-L-Prolylglycine 4-Benzylphenyl-amide Dihydrochloride]	14	16	12	99	100					
Cl.Cl.Cl.NCC(=O)N[C@H]1CN[C@H](C(=O)Nc2cnc3ccc(Cc4ccccc4)cc3c2)C1 (relative stereo) [Compound D327, trans-4-Glycylamino-L-Proline 3-(6-Benzyl)quinolyl-amide Trihydrochloride]						20	19	99	100	100
N[C@H]1CCN[C@H](C(=O)Nc2ccc(Oc3ccccc3)cc2)C1 [Compound D329, trans-4-Amino-L-Pipecolinoyl-(4-Phenoxyphenyl)-amide Dihydrochloride]	20	20	17	16	97					
NCC(=O)N[C@H]1CN[C@H](C(=O)N2C[C@H](NC(=O)[C@H](O)CCc3ccccc3)C[C@H]2C(=O)Nc2cnc3ccccc3c2)C1 (mixture of isomers) [Compound D103, trans-4-Glycylamino-L-Prolyl-trans-4-((R)-2-Hydroxy-4-Phenylbutyrylamino)-L-Proline 3-Quinolylamide Trihydrochloride]	17	6	99	100	100					
Cl.Cl.NCC(=O)NC1CNC(C(=O)Nc2cccc(NC(=O)CCc3ccccc3)c2)C1 [Compound D701, 1-(N-trans-4-Glycylamino-L-Prolylamino)-3-(4-Phenylpropanoylamino)benzene Dihydrochloride]						17	10	96	100	100
NCC(=O)N[C@H]1CN[C@H](C(=O)N2CCC(Oc3cc(Cl)cc(Cl)c3)CC2)C1 [Compound D414, 1-(trans-4-Glycylamino-L-Prolyl)-4-(3,5-dichlorophenoxy)piperidine Dihydrochloride]	19	98	100	100	100					
NCC(=O)N[C@H]1CN[C@H](C(=O)Nc2cccc(OCc3ccccc3)c2)C1 [Compound D318, trans-4-Glycylamino-L-Proline 3-Benzyloxyphenyl-amide Dihydrochloride]	17	16	19	99	99					
NCCC[C@H](N)C(=O)N1C[C@@H](NC(=O)CCCc2ccccc2)C[C@H]1C(=O)Nc1ccc2c(c1)CCC2 [Compound D122, L-Ornithyl-cis-4-(4-phenylbutanoyl)amino-L-proline 5-Indanylamide]	16	99	100	100	99					
CNCC(=O)N1C[C@H](N)C[C@H]1C(=O)N1C[C@H](NC(=O)[C@H](O)CCc2ccccc2)C[C@H]1C(=O)Nc1cnc2ccccc2c1 (mixture of isomers) [Compound D111, 1-(N-Methylglycyl)-trans-4-Amino-L-Prolyl-trans-4-((R)-2-Hydroxy-4-Phenylbutyrylamino)-L-Proline 3-Quinolylamide Trihydrochloride]	20	20	19	27	100					

— US6399629B1, “Efflux pump inhibitors” (priority 1998, dated 2002)
